Source: the NIST ThermoML archive (doi:10.1021/acs.jced.8b01236)

Assay: xn = mol fraction of the nth substance listed
Settings: Liquid; for binary diffusion coefficient: Open capillary; for mass density: Pycnometric method

CCCC[N+]1(C)CCCC1.O=S(=O)([N-]S(=O)(=O)C(F)(F)F)C(F)(F)F + O=C=O
Settings | binary diffusion coefficient [m2/s] | mass density [kg/m3]
298.15 K, 100 kPa, x2 = 0.2 | 1.3e-10 | –
298.15 K, 996 kPa, x2 = 0.199 | – | 1385
298.15 K, 1000 kPa, x2 = 0.2 | 1.6e-10 | –
298.15 K, 1997 kPa, x2 = 0.379 | – | 1377
298.15 K, 2000 kPa, x2 = 0.2 | 3e-10 | –
298.15 K, 2502 kPa, x2 = 0.449 | – | 1371
298.15 K, 3031 kPa, x2 = 0.51 | – | 1361
298.15 K, 3511 kPa, x2 = 0.559 | – | 1351
298.15 K, 4013 kPa, x2 = 0.602 | – | 1348
298.15 K, 4504 kPa, x2 = 0.638 | – | 1345
298.15 K, 5002 kPa, x2 = 0.674 | – | 1339
298.15 K, 5512 kPa, x2 = 0.702 | – | 1336
298.15 K, 6040 kPa, x2 = 0.728 | – | 1326
298.15 K, 6378 kPa, x2 = 0.745 | – | 1330
318.15 K, 1005 kPa, x2 = 0.156 | – | 1387
318.15 K, 2046 kPa, x2 = 0.311 | – | 1391
318.15 K, 3019 kPa, x2 = 0.436 | – | 1389
318.15 K, 4000 kPa, x2 = 0.528 | – | 1397
318.15 K, 6033 kPa, x2 = 0.638 | – | 1380
318.15 K, 8002 kPa, x2 = 0.714 | – | 1378
318.2 K, 100 kPa, x2 = 0.15 | 2.2e-10 | –
318.2 K, 1000 kPa, x2 = 0.15 | 2.9e-10 | –
318.2 K, 2000 kPa, x2 = 0.15 | 3.3e-10 | –
338.15 K, 1019 kPa, x2 = 0.123 | – | 1368
338.15 K, 2011 kPa, x2 = 0.23 | – | 1358
338.15 K, 2520 kPa, x2 = 0.301 | – | 1369
338.15 K, 3004 kPa, x2 = 0.345 | – | 1369
338.15 K, 4000 kPa, x2 = 0.435 | – | 1371
338.15 K, 5007 kPa, x2 = 0.495 | – | 1380
338.15 K, 6020 kPa, x2 = 0.537 | – | 1357
338.15 K, 7504 kPa, x2 = 0.606 | – | 1348
338.15 K, 10012 kPa, x2 = 0.682 | – | 1349
338.15 K, 12486 kPa, x2 = 0.712 | – | 1384
338.15 K, 14895 kPa, x2 = 0.728 | – | 1387

CCCCCC[N+]1(C)CCCC1.O=S(=O)([N-]S(=O)(=O)C(F)(F)F)C(F)(F)F + O=C=O
Settings | binary diffusion coefficient [m2/s] | mass density [kg/m3]
298.15 K, 100 kPa, x2 = 0.2 | 1.6e-10 | –
298.15 K, 1000 kPa, x2 = 0.2 | 2.4e-10 | –
298.15 K, 1004 kPa, x2 = 0.236 | – | 1360
298.15 K, 2000 kPa, x2 = 0.2 | 4e-10 | –
298.15 K, 2030 kPa, x2 = 0.403 | – | 1354
298.15 K, 2493 kPa, x2 = 0.484 | – | 1343
298.15 K, 3003 kPa, x2 = 0.531 | – | 1345
298.15 K, 3496 kPa, x2 = 0.577 | – | 1336
298.15 K, 3999 kPa, x2 = 0.614 | – | 1324
298.15 K, 4496 kPa, x2 = 0.653 | – | 1308
298.15 K, 4998 kPa, x2 = 0.683 | – | 1299
298.15 K, 5521 kPa, x2 = 0.716 | – | 1294
298.15 K, 5995 kPa, x2 = 0.738 | – | 1281
298.15 K, 6387 kPa, x2 = 0.751 | – | 1263
318.15 K, 1005 kPa, x2 = 0.179 | – | 1346
318.15 K, 2021 kPa, x2 = 0.315 | – | 1332
318.15 K, 2513 kPa, x2 = 0.366 | – | 1315
318.15 K, 2996 kPa, x2 = 0.416 | – | 1323
318.15 K, 4039 kPa, x2 = 0.515 | – | 1311
318.15 K, 6032 kPa, x2 = 0.632 | – | 1301
318.15 K, 7998 kPa, x2 = 0.72 | – | 1291
318.15 K, 9884 kPa, x2 = 0.783 | – | 1345
318.2 K, 100 kPa, x2 = 0.15 | 2.3e-10 | –
318.2 K, 1000 kPa, x2 = 0.15 | 3.8e-10 | –
318.2 K, 1800 kPa, x2 = 0.15 | 3.8e-10 | –
338.15 K, 1001 kPa, x2 = 0.118 | – | 1307
338.15 K, 2028 kPa, x2 = 0.264 | – | 1315
338.15 K, 2537 kPa, x2 = 0.293 | – | 1311
338.15 K, 3030 kPa, x2 = 0.346 | – | 1310
338.15 K, 4022 kPa, x2 = 0.443 | – | 1313
338.15 K, 5027 kPa, x2 = 0.508 | – | 1311
338.15 K, 6014 kPa, x2 = 0.561 | – | 1307
338.15 K, 7501 kPa, x2 = 0.637 | – | 1310
338.15 K, 10006 kPa, x2 = 0.706 | – | 1319
338.15 K, 12478 kPa, x2 = 0.752 | – | 1325
338.15 K, 14944 kPa, x2 = 0.771 | – | 1341

CCC[N+]1(C)CCCC1.O=S(=O)([N-]S(=O)(=O)C(F)(F)F)C(F)(F)F + O=C=O
Settings | binary diffusion coefficient [m2/s] | mass density [kg/m3]
298.15 K, 100 kPa, x2 = 0.2 | 1.3e-10 | –
298.15 K, 1000 kPa, x2 = 0.2 | 1.8e-10 | –
298.15 K, 1009 kPa, x2 = 0.236 | – | 1464
298.15 K, 2000 kPa, x2 = 0.2 | 2.4e-10 | –
298.15 K, 2028 kPa, x2 = 0.389 | – | 1420
298.15 K, 3030 kPa, x2 = 0.503 | – | 1411
298.15 K, 3507 kPa, x2 = 0.553 | – | 1408
298.15 K, 4038 kPa, x2 = 0.598 | – | 1401
298.15 K, 4517 kPa, x2 = 0.632 | – | 1390
298.15 K, 5014 kPa, x2 = 0.661 | – | 1386
298.15 K, 5505 kPa, x2 = 0.688 | – | 1385
298.15 K, 6003 kPa, x2 = 0.709 | – | 1373
298.15 K, 6397 kPa, x2 = 0.725 | – | 1363
318.15 K, 1055 kPa, x2 = 0.185 | – | 1441
318.15 K, 2223 kPa, x2 = 0.323 | – | 1437
318.15 K, 4005 kPa, x2 = 0.471 | – | 1407
318.15 K, 5004 kPa, x2 = 0.528 | – | 1392
318.15 K, 6004 kPa, x2 = 0.575 | – | 1374
318.15 K, 7010 kPa, x2 = 0.621 | – | 1356
318.15 K, 8010 kPa, x2 = 0.664 | – | 1366
318.15 K, 16527 kPa, x2 = 0.731 | – | 1385
318.15 K, 19966 kPa, x2 = 0.751 | – | 1406
318.2 K, 100 kPa, x2 = 0.15 | 2.7e-10 | –
318.2 K, 1000 kPa, x2 = 0.15 | 3e-10 | –
318.2 K, 2000 kPa, x2 = 0.15 | 3.7e-10 | –
338.15 K, 1009 kPa, x2 = 0.065 | – | 1400
338.15 K, 2002 kPa, x2 = 0.198 | – | 1405
338.15 K, 2508 kPa, x2 = 0.249 | – | 1393
338.15 K, 3007 kPa, x2 = 0.328 | – | 1408
338.15 K, 4008 kPa, x2 = 0.413 | – | 1404
338.15 K, 4999 kPa, x2 = 0.474 | – | 1427
338.15 K, 6006 kPa, x2 = 0.536 | – | 1430
338.15 K, 7503 kPa, x2 = 0.612 | – | 1435
